Where a SMILES comes first, the peptide text is derived from it. The star is where a group is joined. NH(4-Me-phenyl) = Cc1ccc(N*)cc1; AMC = Cc1cc(=O)oc2cc(N*)ccc12; Cbz = O=C(OCc1ccccc1)*; X1 = Cc1ccc(S*)cc1; X2 = Cc1ccc(O*)cc1
Assays:
[1] = test system: active GzmA secreted by NK-92 cells; assay: Detection of active GzmA in supernatants of stimulated NK-92 cells; type: cell-based, human; details: supernatants of stimulated NK-92 cells + compound 9
Description: Encouraged by the high reactivity of compound 9, we evaluated its potential application to detect active GzmA secreted by immune cells. NK cell‐based therapies are regarded as potential anticancer treatments due to their ability to secrete granzymes to the extracellular space and cause cytotoxicity in cancer cells.[24] […] To test the utility of compound 9 to measure active GzmA in cell supernatants, we performed degranulation assays in human NK‐92 cells (e.g., a patient‐derived cell line that expresses higher levels of GzmA than healthy NK cells)[25] and also tested GzmA‐negative cells (e.g., HaCaT keratinocytes, Figure S8). NK‐92 cells were stimulated with […] and ionomycin (Figure 5).[26] Cell supernatants were collected and incubated with compound 9 for 1 h, followed by spectroscopic measurements. […] Previous reports indicate that granzyme activity can be detected inside NK‐92 cells[[11b]] and that granzymes can be found within activated immune cells due to intracellular granular leakage,[27] even though granzyme activity is known to be reduced in acidic granules. To study this observation, we performed Z‐stack live‐cell confocal microscopy in NK‐92 cells after incubation with compound 9.
(§1) 5.0) prior to the enzyme assays.
(§2) All the tubes were incubated
(§3) NK- 92 cell inhibition and imaging. […]
(§4) Microsystems) and qualitatively analysed using Fiji.

NK-92 cells = assay: Live-cell confocal microscopy of NK-92 cells; type: cell-based, human; details: 3,4-dichloroisocoumarin 5 μM, 2 h prior to labeling with compound 9 (5 μM, 1 h)
Method: Figure S9. Brightfield and fluorescence confocal microscopy merged images of live NK-92 cells upon incubation with compound 9. Representative microscopy images from 3 independent experiments of live NK-92 cells upon incubation with […]
dichloroisocoumarin (5 µM) was used as a GzmA inhibitor for 2 h prior to labeling.
as §1, §2, §3, §4

hGzmA = molecular target: T1, hGzmA (Homo sapiens, UniProt P12544); assay: Inhibition by 3,4-dichloroisocoumarin of the fluorescence of compound 9 with hGzmA; type: biochemical; details: 3,4-dichloroisocoumarin 100 μM, compound 9 20 μM, hGzmA 20 nM, Tris buffer (pH 8)
T1 construct: in the absence or presence of active recombinant hGzmA
T1 sequence (P12544 29-262): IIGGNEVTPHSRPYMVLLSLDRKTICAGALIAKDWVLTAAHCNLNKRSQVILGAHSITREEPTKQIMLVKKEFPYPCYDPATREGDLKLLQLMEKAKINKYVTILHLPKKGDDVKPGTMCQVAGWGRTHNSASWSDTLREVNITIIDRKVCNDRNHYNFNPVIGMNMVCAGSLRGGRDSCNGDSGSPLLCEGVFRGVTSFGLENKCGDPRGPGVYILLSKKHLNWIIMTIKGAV

[2] = Chemical stability in aqueous buffers by HPLC-MS (no enzyme); type: physicochemical; details: for chemical stability at other pH (in words): basic and acid media
Method: Figure 2 Solid‐phase peptide synthesis (SPPS) of the sequence Ac‐IGNR‐OH (compound 1) and corresponding analogues containing spacers with different connectivities. The synthesis of compounds 1–4 is described in the Supporting Information. […] TEXT PRINTED IN THE PICTURE: 2 (ester): pH 4: < 5%; pH 7: < 5%; pH 10: < 5% | 3 (thioester): pH 4: 70%; pH 7: < 5%; pH 10: < 5% | 4 (amide): pH 4: > 95%; pH 7: > 95%; pH 10: > 95%
First, we synthesized a large batch (>400 mg) of Ac‐IGNR‐OH using standard protocols for the solid‐phase synthesis of fluorescent peptides[20] in polystyrene resin derivatized with a 2‐chlorotritylchloride linker (PS‐CTC). Next, we coupled the tetrapeptide Ac‐IGNR‐OH (compound 1, Figure 2) to different aryl groups to generate the isosteric ester, thioester and amide analogues (compounds 2, 3 and 4 respectively, Figure 2). After isolation of all compounds by semi‐preparative HPLC with purities >95 %, we analyzed their chemical stability in aqueous media in the absence of hGzmA. […] We also tested their chemical integrity at different pH values because GzmA can be stored in slightly acidic cytotoxic granules inside CTLs.[21]

[3] = Emission wavelength / spectral properties; type: physicochemical; details: comparison of compound 9 and Z-FR-AMC
[4] = Tris buffer (pH 7.4), absence of hGzmA, HPLC-MS
[5] = pH 4, aqueous buffer, 2 h at 37 °C, HPLC-MS
[6] = pH 7, aqueous buffer, 2 h at 37 °C, HPLC-MS
[7] = pH 10, aqueous buffer, 2 h at 37 °C, HPLC-MS

Compound | chemical stability (in words) [2, 4] | chemical stability at other pH (in words) ([2]; HPLC-MS, 2 h at 37 °C) | stability (% by HPLC-MS) [2, 6] [%] | stability (% by HPLC-MS) [2, 7] [%] | stability (% by HPLC-MS) [2, 5] [%] | also measured
O=c1oc(Cl)c(Cl)c2ccccc12 [3,4‐dichloroisocoumarin] |  |  |  |  |  | effect of inhibitor on supernatant fluorescence (in words) [1]: blocked; effect of inhibitor on intracellular fluorescence (in words) (NK-92 cells): reduced; decrease of the fluorescence signal (hGzmA): > 90%
CC[C@H](C)[C@H](NC(C)=O)C(=O)NCC(=O)N[C@@H](CC(N)=O)C(=O)N[C@@H](CCCNC(=N)N)C(=O)Sc1ccc(C)cc1 [compound 3] (Ac-IGNR-X1) | completely hydrolyzed | more stable than the carboxylic ester analogue 2 at acidic pH | < 5 | < 5 |  | remaining at 2 h [2, 5]: 70%
CC[C@H](C)[C@H](NC(C)=O)C(=O)NCC(=O)N[C@@H](CC(N)=O)C(=O)N[C@@H](CCCNC(=N)N)C(=O)Nc1ccc(C)cc1 [compound 4] (Ac-IGNR-{NH(4-Me-phenyl)}) | fully stable | stable in basic and acid media | > 95 | > 95 | > 95 | purity after incubation ([2]; Tris buffer (pH 7.4), absence of hGzmA): > 95%
Cbz-Phe-Arg-{AMC} |  |  |  |  |  | emission wavelength [3]: 445 nm
CC[C@H](C)[C@H](NC(C)=O)C(=O)NCC(=O)N[C@@H](CC(N)=O)C(=O)N[C@@H](CCCNC(=N)N)C(=O)Oc1ccc(C)cc1 [compound 2] (Ac-IGNR-X2) | completely hydrolyzed |  | < 5 | < 5 | < 5 | 

From paper PMC10108010, “Fluorogenic Granzyme A Substrates Enable Real‐Time Imaging of Adaptive Immune Cell Activity” (Angewandte Chemie (International Ed. in English), 2023)
